Experimental data as given in the supplement of paper PMC9663587.

Legend:
Test in all cases: GRmax, 72 h; higher = less effect;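 also: breast cell lines in 384-well plates, nine doses across a 10^4 range, Dye Drop imaging of viable cells vs DMSO and time-zero plates, GR 0 means no net growth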
BT20 = test system: BT20
BT549 = test system: BT549
CAL120 = test system: CAL120
CAL51 = test system: CAL51
CAL851 = test system: CAL851
CAMA1 = test system: CAMA1
HCC1143 = test system: HCC1143
HCC1395 = test system: HCC1395
HCC1419 = test system: HCC1419
HCC1428 = test system: HCC1428
HCC1500 = test system: HCC1500
HCC1806 = test system: HCC1806
HCC1937 = test system: HCC1937
HCC1954 = test system: HCC1954
HCC38 = test system: HCC38
HCC70 = test system: HCC70
HS578T = test system: HS578T
HTERT_HME1 = test system: HTERT_HME1
MCF10A = test system: MCF10A
MCF7 = test system: MCF7
MDAMB157 = test system: MDAMB157
MDAMB231 = test system: MDAMB231
MDAMB361 = test system: MDAMB361
MDAMB436 = test system: MDAMB436
MDAMB453 = test system: MDAMB453
MDAMB468 = test system: MDAMB468
PDX1258 = test system: PDX1258
PDX1328 = test system: PDX1328
PDXHCI002 = test system: PDXHCI002
SKBR3 = test system: SKBR3
SUM1315 = test system: SUM1315
SUM149 = test system: SUM149
SUM159 = test system: SUM159
T47D = test system: T47D

`COc1cc([C@@H]2c3cc4c(cc3[C@@H](O[C@@H]3O[C@@H]5CO[C@@H](C)O[C@H]5[C@H](O)[C@H]3O)[C@H]3COC(=O)[C@H]23)OCO4)cc(OC)c1O` [Etoposide] (max 10 µM) was tested. Which “GRmax, 72 h” value (BT20) did it give?
The value was -0.383 GR.

What about the “GRmax, 72 h” value (BT549) of the same compound?
Its value is -0.195 GR.

What about the “GRmax, 72 h” value (CAL120) of the same compound?
Its value is -0.166 GR.

And the “GRmax, 72 h” value (CAL51)?
The value was -0.21 GR.

And the “GRmax, 72 h” value (CAL851)?
The value was -0.241 GR.

And the “GRmax, 72 h” value (CAMA1)?
Its value is -0.448 GR.

What about the “GRmax, 72 h” value (HCC1143) of the same compound?
Its value is -0.166 GR.

What about the “GRmax, 72 h” value (HCC1395) of the same compound?
Its value is -0.225 GR.

And the “GRmax, 72 h” value (HCC1419)?
The value was 0.0317 GR.

What about the “GRmax, 72 h” value (HCC1428) of the same compound?
The value was -0.032 GR.

And the “GRmax, 72 h” value (HCC1500)?
The value was -0.0766 GR.

What about the “GRmax, 72 h” value (HCC1806) of the same compound?
Its value is -0.563 GR.

And the “GRmax, 72 h” value (HCC1937)?
The value was -0.118 GR.

And the “GRmax, 72 h” value (HCC1954)?
The value was -0.265 GR.

And the “GRmax, 72 h” value (HCC38)?
Its value is -0.424 GR.

And the “GRmax, 72 h” value (HCC70)?
The value was -0.152 GR.

And the “GRmax, 72 h” value (HS578T)?
Its value is -0.136 GR.

And the “GRmax, 72 h” value (HTERT_HME1)?
The value was -0.384 GR.

And the “GRmax, 72 h” value (MCF10A)?
The value was -0.0699 GR.

And the “GRmax, 72 h” value (MCF7)?
Its value is -0.0441 GR.

And the “GRmax, 72 h” value (MDAMB157)?
The value was -0.434 GR.

And the “GRmax, 72 h” value (MDAMB231)?
Its value is 0.12 GR.

What about the “GRmax, 72 h” value (MDAMB361) of the same compound?
The value was -0.517 GR.

And the “GRmax, 72 h” value (MDAMB436)?
The value was -0.157 GR.

And the “GRmax, 72 h” value (MDAMB453)?
The value was -0.0601 GR.

What about the “GRmax, 72 h” value (MDAMB468) of the same compound?
The value was -0.513 GR.

And the “GRmax, 72 h” value (PDX1258)?
Its value is -0.181 GR.

What about the “GRmax, 72 h” value (PDX1328) of the same compound?
The value was -0.281 GR.

And the “GRmax, 72 h” value (PDXHCI002)?
The value was -0.179 GR.

And the “GRmax, 72 h” value (SKBR3)?
The value was -0.317 GR.

And the “GRmax, 72 h” value (SUM1315)?
The value was 0.0416 GR.

And the “GRmax, 72 h” value (SUM149)?
Its value is -0.196 GR.

What about the “GRmax, 72 h” value (SUM159) of the same compound?
Its value is -0.279 GR.

What about the “GRmax, 72 h” value (T47D) of the same compound?
The value was -0.186 GR.
